Measured values published in patent US9564604B2, “Fused polycyclic aromatic compounds, organic semiconductor material and thin film including the same, and method for producing an organic semiconductor device” (Nippon Kayaku Kabushiki Kaisha, priority 2012, dated 2017).

Legend:
[1] = Solubility measurement in chloroform (saturated solution); assay type: physicochemical; settings: mass percent concentration of saturated chloroform solution
Procedure: Solubility was measured by using chloroform as solvent.

[2] = CV (cyclic voltammetry) measurement in dichloromethane; assay type: physicochemical; settings: n-BuN4PF6 0.1 M, Pt electrodes, silver-silver chloride reference, 100 mV/sec
Procedure: CV measurement was conducted by using dichloromethane as solvent, tetrabutylammonium hexafluorophosphate (n-BuN4PF6, 0.1 M) as a supporting electrolyte, platinum wires as working electrodes and counter electrodes, and a silver-silver chloride electrodes as reference electrodes, and by sweeping the electric potential at a rate of 100 mV/sec. In all Compounds 101, 110, 112, 136, 201, 210, 212, 214, and 236, two pairs of oxidation-reduction waves were observed.

Solubility in chloroform [1] | first half-wave reduction potential [2] | second half-wave reduction potential [2] | SMILES
– | 0.06 V | −0.28 V | CCCCCCCCCCCCCCCCc1cc2c(s1)c(=C(C#N)C#N)cc1c3cc(CCCCCCCCCCCCCCCC)sc3c(=C(C#N)C#N)cc21 [Compound 214]
– | 0.06 V | −0.28 V | CCCCCCCCCCCCc1cc2c(s1)c(=C(C#N)C#N)cc1c3cc(CCCCCCCCCCCC)sc3c(=C(C#N)C#N)cc21 [Compound 212]

Second part, the compound before the results:

SMILES | Solubility in chloroform [1] | first half-wave reduction potential [2] | second half-wave reduction potential [2]
CCCCCCCCCCCCc1cc2c(=C(C#N)C#N)cc3c(cc(=C(C#N)C#N)c4cc(CCCCCCCCCCCC)sc43)c2s1 [Compound 112] | 0.22 w/w % | 0.06 V | −0.28 V
CC(C)[Si](c1cc2c(=C(C#N)C#N)cc3c(cc(=C(C#N)C#N)c4cc([Si](C(C)C)(C(C)C)C(C)C)sc43)c2s1)(C(C)C)C(C)C [Compound 136] | – | 0.06 V | −0.28 V
N#CC(C#N)=c1cc2c3ccsc3c(=C(C#N)C#N)cc2c2ccsc12 [Compound 201] | – | 0.06 V | −0.28 V
CCCCCCCCc1cc2c(s1)c(=C(C#N)C#N)cc1c3cc(CCCCCCCC)sc3c(=C(C#N)C#N)cc21 [Compound 210] | – | 0.06 V | −0.28 V
CCCCCCCCc1cc2c(=C(C#N)C#N)cc3c(cc(=C(C#N)C#N)c4cc(CCCCCCCC)sc43)c2s1 [Compound 110] | 0.52 w/w % | 0.06 V | −0.28 V
